Biological target: T1, NKCC1 (Homo sapiens, UniProt P55011)
T1 construct: endogenous in cells; host or cells: native HEK293 cells
T1 sequence (P55011 1-1212): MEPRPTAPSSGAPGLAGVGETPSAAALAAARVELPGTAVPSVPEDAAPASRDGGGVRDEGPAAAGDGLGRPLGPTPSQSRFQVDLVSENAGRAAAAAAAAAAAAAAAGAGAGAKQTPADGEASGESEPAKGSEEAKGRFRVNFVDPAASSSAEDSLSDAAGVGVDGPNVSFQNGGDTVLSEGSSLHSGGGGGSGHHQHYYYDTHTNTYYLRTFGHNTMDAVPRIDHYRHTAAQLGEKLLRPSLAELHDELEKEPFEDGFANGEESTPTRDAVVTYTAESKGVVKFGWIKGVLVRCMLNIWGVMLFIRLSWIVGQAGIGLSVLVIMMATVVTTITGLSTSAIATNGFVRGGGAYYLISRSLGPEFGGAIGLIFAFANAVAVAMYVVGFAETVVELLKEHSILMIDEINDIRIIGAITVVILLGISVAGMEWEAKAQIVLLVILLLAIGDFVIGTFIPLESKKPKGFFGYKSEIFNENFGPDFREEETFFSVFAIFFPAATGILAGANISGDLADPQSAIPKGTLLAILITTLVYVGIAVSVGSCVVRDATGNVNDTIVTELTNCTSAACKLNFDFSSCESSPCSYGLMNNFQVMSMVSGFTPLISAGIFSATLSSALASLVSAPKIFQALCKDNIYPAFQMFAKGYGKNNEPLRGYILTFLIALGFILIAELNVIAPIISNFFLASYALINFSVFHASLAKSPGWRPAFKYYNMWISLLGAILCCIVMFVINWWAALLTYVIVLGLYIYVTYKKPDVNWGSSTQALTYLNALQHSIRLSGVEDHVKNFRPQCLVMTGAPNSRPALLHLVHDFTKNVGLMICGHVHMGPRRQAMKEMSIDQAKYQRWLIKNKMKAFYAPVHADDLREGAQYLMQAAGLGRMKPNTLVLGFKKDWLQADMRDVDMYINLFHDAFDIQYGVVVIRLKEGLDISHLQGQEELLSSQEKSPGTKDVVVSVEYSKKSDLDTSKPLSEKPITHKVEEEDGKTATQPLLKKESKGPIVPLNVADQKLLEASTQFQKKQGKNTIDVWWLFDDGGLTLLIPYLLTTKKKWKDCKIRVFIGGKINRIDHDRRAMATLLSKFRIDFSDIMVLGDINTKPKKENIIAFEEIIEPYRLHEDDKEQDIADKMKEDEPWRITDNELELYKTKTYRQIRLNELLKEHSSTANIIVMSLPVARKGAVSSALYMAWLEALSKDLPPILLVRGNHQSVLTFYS
Experiment: NKCC1-mediated K+ influx (83Rb tracer uptake) in native HEK293 cells, hypertonic saline, 100 μM ouabain
Assay type: cell-based
Details: HEK293, no drug = 1000, 20 μM bumetanide = 0; for inhibition at 2 µM: read-out: NKCC1 mediated flux inhibition at 2 μM (%); for inhibition at 20 µM: read-out: NKCC1 mediated flux inhibition at 20 μM (%)
Procedure, shortened: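 Native cells in slightly hypertonic saline with 100 μM ouabain; 15 min preincubation then 15 min 83Rb uptake (0.25 μCi/mL), scintillation counting normalized to protein. Compounds at 2 μM and 20 μM; flux scaled 1000 (no drug) to 0 (20 μM bumetanide), triplicate dishes.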

Structure (SMILES)	inhibition at 2 µM	inhibition at 20 µM
CCCCNc1cc(C(=O)O)cc(S(=N)(=O)NC)c1Oc1ccccc1 (stereo not shown) [Compound 51, 3-(butylamino)-5-(methylaminosulfonimidoyl)-4-phenoxy-benzoic acid]	50 to 75%	≥ 75%
CCCCNc1cc(C(=O)O)cc(S(=N)(=O)Nc2ccccc2)c1Oc1ccccc1 (stereo not shown) [Compound 57, 3-(anilinosulfonimidoyl)-5-(butylamino)-4-phenoxy-benzoic acid]	50 to 75%	≥ 75%

From patent US20260374782A1, “NEW COMPOUNDS, PROCESSES FOR PREPARING THE SAME AND THEIR USE AS DRUGS” (B&A ONCOMEDICAL, priority 2022, published 2026)
